# Columns and labels:
# [1] = cited from earlier work
# [2] = system: patients after bariatric surgery with post-prandial hypoglycaemia; assay: Liquid mixed-meal test after single dose: plasma glucose and glucose-requiring hypoglycaemic events; type: in vivo, human; details: for number of events (hypoglycemia requiring glucose rescue), estimate vs placebo: FIG. 5b, generalized linear additive mixed effect model; for glucose, estimate vs placebo: FIG. 5c, linear mixed effect model; for severity of hypoglycemic events / events requiring rescue glucose administration: pre-treatment vs placebo (7 of 12 patients on placebo), p=0.037; for glucose-requiring hypoglycaemic events (%): single dose before mixed meal, placebo 61.5%
# Method: This study is a placebo controlled, double-blind, randomized, cross-over proof-of-concept study. The study consists of a screening visit and three study dates that need to have a minimum interval between the dates of four days and maximum of two weeks. Ideally, all three study dates are performed within 14 days allowing the usage of one single flash glucose monitoring system sensor (Freestyle Libre®, Abbott) for the entire period. The screening visit is about 90 min. Each study day lasts 6.5 hours and consists of the same schedule. If the subject agrees to use a glucose flash monitoring system, the sensor is installed the afternoon before study day 1 and the subject is instructed in the use of the system.
# (§1) The 12 subjects were randomly assigned into six groups consisting of two subjects receiving study medication in a double-blind, crossed-over manner as outlined in FIG. 2. Patients need to be sober at least eight hours before ingestion of mixed-meal. To ensure that fasting period is not too long, patients receive a small late evening meal consisting of 4 DarVida Natural Crackers as well as 3 Sinergy® drops (see Appendix for specific contents) or are alternatively pleased to have their dinner at around 10 pm. Treatment consists of a single subcutaneous injection of 100 mg Anakinra (Kineret®) or matched placebo three hours before ingestion of the mixed-meal and of a single oral tablet of 10 mg of empagliflozin (Jardiance®) or matched placebo two hours before mixed-meal at each study day. Patients were randomised to receive in different sequences either (1) anakinra and an oral placebo to empagliflozin, (2) empagliflozin and a subcutaneous placebo (0.67 ml 0.9% saline) to anakinra or (3) double placebo. Participants, investigators and study nurses were blinded to the study drug.
# Between the study drug application questionnaires concerning dumping symptoms were answered. Regular measurement of vital parameters, blood samples and hypoglycaemia assessments were performed as outlined in FIG. 1. After ingestion of the liquid mixed-meal subjects had to rest in supine position (at least 45°). One subject was not able to ingest the full specified liquid mixed meal (carbohydrate load of 40 g instead of 60 g) on the first study day and thereafter received the same portion of liquid mixed meal on subsequent study days.
# In case of symptomatic hypoglycaemia before the prespecified next laboratory control immediate glucose measurements with Freestyle Libre® and POCT respectively were performed and in case of hypoglycemic values (<3.0 mmol/l) laboratory samples were drawn and glucose (10 g) was given intravenously. Samples were named according to the exact timepoint and the following pre-specified samples were taken according to the study schedule. If patients were not symptomatic glucose (10 g) was given intravenously only in case of POCT glucose values below 2.5 mmol/l.
# Blood glucose measurements regularly took place and an inserted catheter in case of hypoglycaemia was adjusted at the beginning of each study date. In case of a symptomatic decrease of blood glucose levels in symptomatic patients below 2.5 mmol/l, counter-regulatory actions (e.g. 100 ml of 10% glucose) were initiated after taking the blood sample panel.
# The primary outcome in this study is the change of post-prandial hypoglycaemia after treatment with empagliflozin (Jardiance®) or anakinra (Kineret®) compared to placebo. This was assessed by blood glucose measurements (capillary POCT measurements and plasma glucose) as well as clinical scoring systems (Edinburgh Hypoglycaemia Scale (Deary et al. Diabetologia 1993; 36(8): 771-7), Mixed-Meal-Test (Wiesli et al. Eur J Endocrinol 2005; 152(4): 605-10.) Stanford sleepiness scale).
# At each study day the same schedule took place. […]
# [3] = system: patients after bariatric surgery with post-prandial hypoglycaemia; assay: Mixed-meal test: insulin, c-peptide, GLP-1, glucagon, insulin secretion and sensitivity indices; type: in vivo, human; details: for insulin AUC, estimate vs placebo: FIG. 5e; for insulin AUC, estimate vs placebo / c-peptide, estimate vs placebo / insulin, estimate vs placebo / insulin secretion index, effect estimate vs placebo: linear mixed effect model; for c-peptide, estimate vs placebo: FIG. 5f; for c-peptide, estimate vs placebo / insulin, estimate vs placebo: log-transformed outcome; for insulin, estimate vs placebo: FIG. 5d; for insulin secretion index, effect estimate vs placebo: placebo average 108.0 pmol/mmol; for Whole body insulin sensitivity index / Insulin secretion index: median, n=12; for Whole body insulin sensitivity index: placebo 38.0, single dose before mixed meal; for Insulin secretion index: placebo 104.6, single 10 mg empagliflozin oral 2 h or 100 mg anakinra s.c. 3 h before mixed meal; for insulin secretion / insulin release and c-peptide secretion over time: vs placebo
# Source text: as §1
# The secondary objectives are to evaluate whether treatment of empagliflozin (Jardiance®) or anakinra (Kineret®) have effects on the following aspects: • level of insulin secretion and sensitivity • levels of GLP-1, glucagon and C-peptide • levels of IL-6; IL-1Ra, CRP • scores in Edinburgh Hypoglycaemia Scale (clinical score for assessment of hypoglycemia), Stanford Sleepiness Scale (clinical score of assessment of sleepiness) as well as Sigstad Score (clinical score for early and late dumping symptoms) • Length of time and amount of glucose needed for restoring normoglycemia.
# Insulin secretion was measured using standard insulin ELISA.
# Statistical analysis for this proof-of-concept translational clinical trial was done on a per-protocol basis. Sample size was based on practical considerations due to the lack of pre-existing data for this intervention. All analyses are to be considered exploratory. Analysis of continuous dependent outcome variables (e.g. glucose, insulin, c-peptide, GLP-1, glucagon, insulin secretion index and sensitivity, IL-1p, IL-6, IL-8, TNFα), was done using linear mixed effect models fit by maximum likelihood. Analysis of the binary dependent outcome variables occurrence of severe hypoglycemia requiring glucose rescue and occurrence of composite score ≥6 on the Edinburgh Hypoglycemia Scale was done using a generalized linear additive mixed effect model fit by maximum likelihood (Laplace approximation). Models were fit including fixed effects for categorical variables such as gender, the occurrence of hypoglycemia, treatment and in case of values measured in cell culture supernatants, activation status (non-stimulated, LPS-simulated), as well as the continuous variables time and BMI as indicated. A random-effect for patient was equally included (random by-subject intercepts, fixed slopes). Models were computed using the R “Ime4” and “gamm4” packages. • Individual models were visually assessed for the presence of heteroscedasticity, collinearity and normality of residuals. […] For visual representation, log-transformed outcome values were back-transformed to their initial values.
# Treatment effects are presented in Table 6 as mean effect size estimates with 95% CIs, test-statistics and multiple comparison adjusted p-values (=FDR values). • Missing values for insulin (n=1), GLP-1 (n=4) and glucagon (n=5) were assumed to be missing at random and imputed using multiple imputation with the R-package “mice”. Inferential statistical analyses were done using R version 3.5.2. Descriptive statistics were done with GraphPad Prism8 version 8.0.1(145). […]
# [4] = system: patients after bariatric surgery with post-prandial hypoglycaemia; assay: Follow up: off-label therapy with empagliflozin after the study; type: in vivo, human; details: six patients
# Source text: Two trial participants were continued to be treated, and four more patients were initiated on off-label therapy with empagliflozin after completion of the study.
# [5] = subcutaneous administration; cited from earlier work
Compound,mean Plasma-AUC in the steady state [1],"glycaemia 30 minutes after ingestion of the mixed meal ([2]; 30 min, 10 mg empagliflozin, the other value is placebo)","glycaemia 60 minutes after ingestion of the mixed meal ([2]; 60 min, 10 mg empagliflozin, the other value is placebo)","glycaemia 90 minutes after ingestion of the mixed meal ([2]; 90 min, 10 mg empagliflozin, the other value is placebo)","number of events (hypoglycemia requiring glucose rescue), estimate vs placebo [2]","glucose, estimate vs placebo [2]",severity of hypoglycemic events / events requiring rescue glucose administration [2],glucose-requiring hypoglycaemic events (%) [2],peak postprandial glucose levels ([2]; vs placebo),"insulin AUC, estimate vs placebo [3]","c-peptide, estimate vs placebo [3]","insulin, estimate vs placebo [3]","insulin secretion index, effect estimate vs placebo [3]",Whole body insulin sensitivity index [3],Insulin secretion index [3],insulin secretion / insulin release and c-peptide secretion over time [3],efficacy and tolerability more than half a year after initiating off-label therapy [4],"frequency of hypoglycemic episodes, off-label therapy ([4]; empagliflozin after completion of the study)",changes of the glucose curve within the first 90 minutes ([2]; vs placebo),time of maximum plasma concentration [5]
OC[C@H]1O[C@@H](c2ccc(Cl)c(Cc3ccc(O[C@H]4CCOC4)cc3)c2)[C@H](O)[C@@H](O)[C@@H]1O [empagliflozin],1.87 µM·h,10.1 mmol/L,6.9 mmol/L,3.5,−2.882,−0.472,significantly reduced the severity of hypoglycemic events with only two events requiring rescue glucose administration,16.6%,reduced,−19.32,−0.2237,−0.852,−10.8 pmol/mmol,84.6,99.2,reduced,still effective and well tolerated by all patients,lower frequency of hypoglycemic episodes in each of the six patients,,
"anakinra: CAS NO 143090-92-0; recombinant, non-glycosylated form of the human interleukin-1 receptor antagonist (IL-1 Ra), 153 amino acids",,,,,−2.882,0.133,significantly reduced the severity of hypoglycemic events with only two events requiring rescue glucose administration,16.6%,,−13.9,−0.0912,−0.266,−18.5 pmol/mmol,72.1,91.6,reduced,,,did not result in significant changes,4 h

# From patent publication US20220088144A1, “SGLT-2 INHIBITORS OR IL-1R ANTAGONISTS FOR REDUCTION OF HYPOGLYCAEMIA AFTER BARIATRIC SURGERY” (UNIVERSITÄTSSPITAL BASEL, priority 2019, published 2022)
